# In patent publication US20100132057A1, “GENETICALLY MODIFIED ANIMAL FOR USE IN EVALUATING HARMFULNESS OF TEST SUBSTANCE” (priority 2008, published 2010):
# How the values were obtained:
# [1] = tested on: reporter (luciferase) gene under AhR-binding enhancer of the TH gene and TH gene promoter in primary neuronal cells; assay: Luciferase luminescence in primary neuronal cells isolated from genetically modified mouse during exposure to TCDD; type: cell-based; settings: 24 hours, FIG. 9; for increase in the degree of luminescence from the unexposed case: primary neuronal cells of mouse #176 embryos (E12)
# From the text: Another embodiment of the invention is directed to a method that includes isolating primary neuronal cells from the genetically modified mouse, exposing the primary neuronal cells to a test substance, and then measuring the expression of the reporter gene in the cells to evaluate the effect of the test substance on the central nervous system. When the reporter gene is a firefly luciferase gene, the method may include isolating primary neuronal cells from the genetically modified mouse, exposing the primary neuronal cells to a test substance, collecting the cells to extract proteins therefrom 2 to 72 hours after the exposure, adding luciferin, a substrate for the luciferase, to the liquid extract, and measuring luminescence derived from the enzyme activity of the luciferase with a luminometer.
# The genetically modified mouse #176 (hetero, male) was mated with a wild-type mouse, and 12 days after the observation of the plug, the brain was removed from the embryo (E12: an embryonic age of 12 days) under a sterile environment. All the removed embryonic brains were collected, and 0.25% trypsin was added thereto and incubated at 37° C. for 15 minutes. The trypsin was removed. After washed tree times with the Hank's solution, the cells were suspended in a serum-containing DF 1:1 medium (Dulbecco-F12 equal-ratio mixture medium+10% fetal bovine serum). […]
# […] The resulting extracted protein solution was used in the measurement of luciferase luminescence. In the luciferase luminescence measurement, 100 μl of an assay solution (PicaGene Assay Kit, Toyo B-Net Co., Ltd.) was added to 10 μl of the collected protein solution and stirred, and immediately after the stirring, the degree of luminescence per 2 minutes was measured with a luminometer LB-940 (Berthold). The resulting degree of luminescence was divided by the total protein amount of the protein solution so that it was converted into a relative luminescence intensity (RLU/min/μg protein). The total protein amount of the solution was measured with a protein assay kit (Bio-Rad).
# [2] = tested on: reporter (luciferase) gene under AhR-binding enhancer of the TH gene and TH gene promoter; assay: Luciferase luminescence in genetically modified mouse during exposure to βNF (IVIS imaging); type: in vivo
# Experimental: When the reporter gene is a firefly luciferase gene, the method may include administering luciferin, a substrate for the luciferase, by intraperitoneal injection to the genetically modified mouse 6 to 72 hours after the administration of the test substance to the genetically modified mouse and measuring luminescence derived from the individual or derived from the enzyme activity of the luciferase in the brain with a luminescence measurement system such as an In-Vivo Imaging System (IVIS), manufactured by Xenogen Corporation.
# A dioxin analog, β-naphthoflavone (βNF), was used as a test substance. A solution of βNF in corn oil was intraperitoneally injected at a βNF dose of 40 mg/kg into each of the genetically modified mice #176 (4 weeks old), #177 (6 weeks old) and #184 (6 weeks old) in the T1 generation. The same amount of corn oil as the amount of the solution in the βNF-administered group was intraperitoneally administered to each of the control group mice (the genetically modified mice in the T1 generation). […] After 5 minutes, an In-Vivo Imaging System (IVIS 100-series), manufactured by Xenogen Corporation, was used to detect luciferase luminescence in the mice. […] In addition, the brain of the genetically modified mouse #176 was cut in the vicinity of the midbrain, and luminescence from the cut section was measured with the IVIS System.
SMILES,"change in the degree of luminescence with TCDD concentration ([1]; TCDD 0, 0.1 or 10 ng/ml, primary neuronal cells of mouse #176 embryos)",increase in the degree of luminescence from the unexposed case ([1]; exposure to 0.1 nM TCDD) [times],increase in the degree of luminescence from the unexposed case ([1]; exposure to 10 ng/ml TCDD) [times],"luciferase luminescence in the mice ([2]; genetically modified mice #176, #177, #184 (T1 generation), βNF 40 mg/kg intraperitoneal in corn oil, 72 hours after administration, whole-body IVIS, FIG. 6)","degree of luminescence from cut brain section ([2]; genetically modified mouse #176, βNF 40 mg/kg intraperitoneal, brain cut in the vicinity of the midbrain, IVIS, FIG. 7)"
"Clc1cc2c(cc1Cl)Oc1cc(Cl)c(Cl)cc1O2 [TCDD, 2,3,7,8-tetrachlorodibenzo-p-dioxin]",TCDD concentration-dependent increase in the degree of luminescence,1.3,3.1,–,–
"O=c1cc(-c2ccccc2)oc2ccc3ccccc3c12 [βNF, β-naphthoflavone]",–,–,–,luciferase luminescence was observed in all the genetically modified mice,an increase in the degree of luminescence was detected in the vicinity of the midbrain or hippocampus
